In article PMC6825215, “An anionic, endosome-escaping polymer to potentiate intracellular delivery of cationic peptides, biomacromolecules, and nanoparticles” (Nature Communications, 2019):
Like-named read-outs stand apart in the source and are kept apart here. Where no end group is shown, it is not given here.

Experiments:
[1] = test system: human coronary artery vascular smooth muscle cells (HCAVSMCs); experiment: Flow cytometric uptake and retention of fluorescently labeled peptide; settings: 5 µM Alexa-488 labeled peptide, mass ratios 3:1 to 1:20 peptide:polymer, 30 min, flow cytometry
Description: (§1) Cells were treated as defined in the following sections in Opti-MEM medium supplemented with 1% penicillin-streptomycin and 1% FBS. For all flow cytometry assays, following treatment or post-treatment incubation, cells were washed 2× in PBS without calcium or magnesium, harvested with 0.05% trypsin-EDTA, centrifuged, resuspended in 300 µL of 0.05% Trypan blue in PBS without calcium or magnesium, and transferred to a 96-well plate for analysis on an EMD Millipore Guava easyCyte™ 5HT flow cytometer with InCyte software for data acquisition. […] All samples were run in triplicate. All flow cytometric uptake data are presented as fold increase in peptide, vivo-morpholino, or nanoparticle uptake relative to treatment with an equivalent dose of the corresponding fluorescently labeled peptide, vivo-morpholino, or nanoparticle formulation alone. Absolute fluorescence data of peptide uptake is shown in the supplement (Supplementary Figs. 4 and 7).
(§2) Cells were then treated with each formulation for 30 min.
Cell culture medium containing the polymer treatment was then aspirated, and cells were subsequently treated with fluorescent peptide or vivo-morpholino alone for 30 min.
HCAVSMCs were seeded and treated for 30 min as noted above.

HEK 293-T LgBiT cells = experiment: NanoLuc luciferase intracellular bioavailability assay; assay type: cell-based, human; settings: sequential delivery of 5 µM PPAA followed by 0.5 or 1 µM YARA-HiBiT, 30 min each; 6 h incubation
Description: HEK 293-T LgBiT cells were seeded into a collagen-coated 96-well plate in DMEM with 10% FBS and 1% P/S and allowed to incubate for 24 h. […] The treatment was then removed and cells were incubated in 10% FBS media for 6 h. Prior to reading, the TECAN Infinite M1000 Pro plate reader was warmed to 37 °C. The cells were treated with 1 μM DrkBiT for 2 min, after which the NanoLuc substrate was added. The plate was immediately read on the plate reader in a kinetic luminescence cycle for 20 min. Peak luminescence data points were calculated by taking the average of the five readings at the peak of the kinetic curve.

HCAVSMCs = experiment: Inhibitor uptake studies; assay type: cell-based, human; settings: for effect of inhibitor during PPAA pretreatment only on subsequent YARA-MK2i peptide uptake: no inhibitor present during peptide treatment; for inhibition at 100 µM / inhibition at 0.1 µM: Homo sapiens
[2] = test system: Luciferase expressing A7r5 cells; experiment: Luciferase gene-silencing assay; assay type: cell-based, rat; settings: sequentially delivered 25 nM siRNA as peptide-siRNA polyplexes
Description: Luciferase expressing A7r5 cells were seeded in a black, clear bottom 96-well plate at a density of 10,000 cells/well in DMEM containing 10% FBS and 1% P/S and allowed to adhere overnight. D-DPB NPs, PepFect-siRNA polyplexes, and CADY-siRNA polyplexes were formulated and loaded with luciferase or scrambled siRNA as noted above. […] Luciferase gene silencing was calculated compared with cells treated with an equivalent dose of scrambled siRNA loaded into D-DPB NPs as a control.

HMVECs = experiment: Vivo-morpholino colocalization with LysoTracker Red; assay type: cell-based, human; settings: delivery with either 2.5 or 5 µM PPAA, 5 µM vivo-morpholino
Description: HMVECs were seeded into Lab-Tek II 8-well chambered coverslips at a density of 10,000 cells/well and incubated overnight. […] Lysotracker staining, imaging of cells, and image processing was carried out as noted above in the peptide endosomal escape experiment.

[3] = test system: HCAVSMCs, HMVECs, RAW 264.7, MCF7, and HEK 293T cells; experiment: Polymer dose-dependent YARA-MK2i uptake in five cell types; settings: co-delivery with 2–5 µM PPAA; all five cell lines; flow cytometry
Description: as §1, §2

[4] = read-out: inhibition of YARA-MK2i peptide uptake, co-delivery with 5 µM PPAA, inhibitor (100 nM wortmannin, 100 µM dynasore) 30 min pretreatment and throughout treatment
[5] = read-out: inhibition of YARA-MK2i peptide uptake, sequential delivery, 5 µM PPAA then peptide, inhibitor (100 nM wortmannin, 100 µM dynasore) 30 min pretreatment and throughout treatment

KLRKVSpK [VASP (no CPP)]
effect of co-delivery with PPAA (pre-complexed NPs) on peptide uptake [1]: no polymer effect on uptake

YARAAARQARA-KLRKVSpK [YARA-VASP]
effect of co-delivery with PPAA (pre-complexed NPs) on peptide uptake [1]: Very similar trends in PPAA dose-dependent uptake

RRRRRRKALARQLGVAA [R6-MK2i]
effect of co-delivery with PPAA (pre-complexed NPs) on peptide uptake [1]: consistently increased peptide uptake

YARAAARQARA-HiBiT [YARA-HiBiT, YARA CPP fused to the HiBiT peptide of the NanoLuc platform]
intracellular delivery (NanoLuc luminescence) (HEK 293-T LgBiT cells): significantly enhanced intracellular delivery

Dextran sulfate
effect of inhibitor during PPAA pretreatment only on subsequent YARA-MK2i peptide uptake (HCAVSMCs): Neither methyl-β-cyclodextrin nor dextran sulfate addition during PPAA pretreatment had any effects on subsequent peptide uptake

O=C(N/N=C/c1ccc(O)c(O)c1)c1cc2ccccc2cc1O [dynasore, Dynasore]
effect on uptake of fluorescent PPAA polymer (without peptide) (HCAVSMCs; 0-200 µM dynasore, 30 min pretreatment, rhodamine labeled PPAA): dose-dependently inhibited internalization | inhibition at 100 µM (HCAVSMCs; [4]): ~30% | inhibition at 100 µM (HCAVSMCs; [5]): ~44% | effect of inhibitor during PPAA pretreatment only on subsequent YARA-MK2i peptide uptake (HCAVSMCs): dose-dependent increase in subsequent YARA-MK2i peptide internalization

Ac-GLWRALWRLLRSLWRLLWRA-cya (Ac-GLWRALWRLLRSLWRLLWRA-cysteamide) [CADY, secondary amphipathic CPP, nucleic acid delivery vector]
effect of PPAA pretreatment on gene-silencing activity of siRNA polyplexes [2]: enhanced the gene-silencing activity

Methyl-β-cyclodextrin
effect of inhibitor during PPAA pretreatment only on subsequent YARA-MK2i peptide uptake (HCAVSMCs): Neither methyl-β-cyclodextrin nor dextran sulfate addition during PPAA pretreatment had any effects on subsequent peptide uptake

COC[C@H]1OC(=O)c2coc3c2[C@@]1(C)C1=C(C3=O)[C@@H]2CCC(=O)[C@@]2(C)C[C@H]1OC(C)=O [wortmannin, Wortmannin]
inhibition at 0.1 µM (HCAVSMCs; [4]): ~69% | inhibition at 0.1 µM (HCAVSMCs; [5]): ~89% | effect of inhibitor during PPAA pretreatment only on subsequent YARA-MK2i peptide uptake (HCAVSMCs): significantly reduced subsequent peptide uptake

CD47 vivo-morpholino: phosphorodiamidite morpholino oligomer conjugated to a cationic octa-guanidine dendrimer; 5′-CGTCACAGGCAGGACCCACTGCCCA (all phosphorodiamidate morpholino (PMO); octa-guanidine dendrimer conjugated, position not given here, further chemistry not fully specified)
colocalization with the endolysosomal dye LysoTracker Red (HMVECs): significantly reduced CD47 vivo-morpholino colocalization

RQIKIWFQNRRMKWKKKALARQLGVAA [Penetratin-MK2i]
effect of co-delivery with PPAA (pre-complexed NPs) on peptide uptake [1]: did not display significant PPAA-mediated enhancement of uptake with co-delivery

YARAAARQARAKALARQLGVAA [YARA-MK2i]
fold increase in uptake of the YARA-MK2i peptide [3]: 10–30 fold

Stearyl-AGYLLGKLLOOLAAAALOOLL [PepFect, stearylated, secondary amphipathic CPP, nucleic acid delivery vector]
effect of PPAA pretreatment on gene-silencing activity of siRNA polyplexes [2]: enhanced the gene-silencing activity

GRKKRRQRRRPPQKALARQLGVAA [TAT-MK2i]
effect of co-delivery with PPAA (pre-complexed NPs) on peptide uptake [1]: consistently increased peptide uptake
